Laboratory results taken from paper PMC10850145, “Hormonal steroids induce multidrug resistance and stress response genes in Neisseria gonorrhoeae by binding to MtrR” (Nature Communications, 2024).
Several values for one entry are separate records, joined by “and”; a condition that tells them apart may be missing. Identical values can stand only once. Like-named read-outs stand apart in the source and are kept apart here.

What was measured:
[1] = target: T1, MtrR R176E (Neisseria gonorrhoeae, UniProt P39897, R176E); assay: biochemical; assay type: binding
T1 construct: Hexa-histidine tag with TEV protease cleavage site (N, cleaved yes); made in house; host or cells: E. coli Rosetta Gami B(DE3) pLysS

[2] = target: T2, MtrR D171A (Neisseria gonorrhoeae, UniProt P39897, D171A); assay: biochemical; assay type: binding; conditions: ITC
T2 construct: Hexa-histidine tag with TEV protease cleavage site (N, cleaved yes); made in house; host or cells: E. coli Rosetta Gami B(DE3) pLysS

[3] = target: T3, MtrR binding to mtrCDE operator (21mer) (Neisseria gonorrhoeae, UniProt P39897); assay: Fluorescence polarization based DNA binding assay, mtrCDE operator; conditions: mtrCDE 21mer + 125 µM steroid
T3 construct: Hexa-histidine tag with TEV protease cleavage site (N, cleaved yes); made in house; host or cells: E. coli Rosetta Gami B(DE3) pLysS
Procedure: Fluorescence polarization based-DNA binding data were collected using a Panvera Beacon 2000 fluorescence polarization system (Invitrogen) and analyzed with Prism (Graphpad Software 9, 10). Purified MtrR was buffer exchanged into “DNA” binding buffer (150 mM NaCl, 20 mM Tris-HCl pH 7.5, 2.5% glycerol, 1 mM TCEP). […] The reported oligoduplexes containing the rpoH and mtrCDE binding site differ in lengths, 27mer and 21mer, respectively[17],[21]. […] BSA and dI-dC are included as carriers and to control for nonspecific DNA binding. Samples were excited at 490 nm and polarized emissions measured at 530 nm. Controls were run with no protein (DNA ± methanol, hormonal steroids) to ensure that millipolarization values were not affected by experimental conditions alone. The binding affinity of protein for DNA was determined using the following equation: P = Pf + (Pb – Pf) [M] / (Kd + [M]) where P is the measured polarization, Pf is the polarization of free DNA, Pb is the polarization of the completely bound DNA, Kd is the equilibrium dissociation constant, and M is the concentration of protein. Pb and Kd were determined by nonlinear least-squares analysis. At least three independent experimental measurements were averaged for each reported binding constant.

[4] = test system: gonococcal strain FA19; assay: MIC of steroidal hormones on GC agar, strain FA19; assay type: cell-based; conditions: Neisseria gonorrhoeae
Procedure: (§1) To determine the minimal inhibitory concentrations (MICs) by the steroidal hormones and their effect on antimicrobial susceptibility, 5 x 10^5 CFU and 1:5 serial dilutions of gonococcal strains were spotted on GC agar plates containing different concentrations of antibiotics and/or hormones as indicated. Antimicrobial susceptibility was assessed after 24 h incubation.
(§2) Table S1. Steroidal hormones are substrates of the MtrCDE efflux pump
(§3) Progesterone Testosterone
(§4) *Minimal inhibition concentration is defined by the lowest concentration at which visible growth is […]

[5] = test system: FA19 mtrD::kan (KH14); assay: MIC of steroidal hormones on GC agar, FA19 mtrD::kan (KH14); assay type: cell-based, Neisseria gonorrhoeae
Procedure: as §1, §2, §3, §4

[6] = test system: rpoH-lacZ expression; assay type: cell-based, Neisseria gonorrhoeae
[7] = test system: N. gonorrhoeae; parameters: method as in PMID 816438; conditions: cited from earlier work
[8] = rpoH-lacZ, ΔmtrR + mtrR D171A in trans, 6.25 µM hormone, single replicate
[9] = rpoH-lacZ, ΔmtrR + mtrR D171A in trans, 12.5 µM hormone, single replicate
[10] = rpoH-lacZ, ΔmtrR + mtrR D171A in trans, 25 µM hormone, single replicate
[11] = rpoH-lacZ, ΔmtrR + mtrR D171A in trans, 50 µM hormone, single replicate

T3 sequence (P39897 whole entry): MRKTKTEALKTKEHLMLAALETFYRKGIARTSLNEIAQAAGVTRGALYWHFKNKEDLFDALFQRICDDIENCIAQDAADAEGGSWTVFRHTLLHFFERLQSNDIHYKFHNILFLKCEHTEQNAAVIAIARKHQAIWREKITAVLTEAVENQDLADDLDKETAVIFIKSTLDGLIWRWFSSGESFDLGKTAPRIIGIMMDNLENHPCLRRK
T2 sequence (P39897 whole entry D171A): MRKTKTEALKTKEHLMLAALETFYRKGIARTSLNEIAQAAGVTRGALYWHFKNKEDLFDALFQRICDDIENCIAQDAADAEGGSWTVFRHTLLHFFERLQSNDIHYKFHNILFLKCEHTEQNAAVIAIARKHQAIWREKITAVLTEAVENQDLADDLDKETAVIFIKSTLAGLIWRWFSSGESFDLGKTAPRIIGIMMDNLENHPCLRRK
T1 sequence (P39897 whole entry R176E): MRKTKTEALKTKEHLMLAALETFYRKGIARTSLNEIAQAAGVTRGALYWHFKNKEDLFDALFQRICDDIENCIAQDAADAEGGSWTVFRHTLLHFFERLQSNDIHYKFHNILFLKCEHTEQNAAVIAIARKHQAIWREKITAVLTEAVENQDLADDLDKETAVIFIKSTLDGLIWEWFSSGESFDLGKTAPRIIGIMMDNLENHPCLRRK

With C[C@]12CC[C@@H]3c4ccc(O)cc4CC[C@H]3[C@@H]1CC[C@@H]2O [β-Estradiol, β-estradiol] the Kd [1] was 720 ± 150 nM, the “binding to MtrR D171A” value [2] was “no observable binding” and the “fluorescence polarization, MtrR titration” value (“fluorescence polarization” for short) ([3]; MtrR WT dimer 0.00 nM) was 0.00 mP. For the same compound, the “fluorescence polarization” value ([3]; MtrR WT dimer 6.35 nM) was 4.51 mP and 6.27 mP and 3.99 mP, the “fluorescence polarization” value ([3]; MtrR WT dimer 11.32 nM) was 5.41 mP and 7.10 mP and 5.13 mP and the “fluorescence polarization” value ([3]; MtrR WT dimer 16.21 nM) was 7.14 mP and 8.80 mP and 6.33 mP. The “fluorescence polarization” value ([3]; MtrR WT dimer 35.50 nM) was 8.94 mP and 8.19 mP, the “fluorescence polarization” value ([3]; MtrR WT dimer 73.35 nM) was 10.97 mP and 13.97 mP and 11.09 mP and the “fluorescence polarization” value ([3]; MtrR WT dimer 110.67 nM) was 13.61 mP and 15.83 mP and 13.69 mP. The “fluorescence polarization” value ([3]; MtrR WT dimer 147.65 nM) was 16.87 mP and 18.60 mP and 16.09 mP, the “fluorescence polarization” value ([3]; MtrR WT dimer 220.59 nM) was 20.11 mP and 24.13 mP and 19.63 mP and the “fluorescence polarization” value ([3]; MtrR WT dimer 292.55 nM) was 24.17 mP and 25.77 mP and 23.16 mP. For the same compound, the “fluorescence polarization” value ([3]; MtrR WT dimer 363.86 nM) was 26.44 mP and 29.33 mP and 25.99 mP, the “fluorescence polarization” value ([3]; MtrR WT dimer 434.54 nM) was 30.01 mP and 30.57 mP and 27.99 mP and the “fluorescence polarization” value ([3]; MtrR WT dimer 504.61 nM) was 31.07 mP and 33.77 mP and 30.59 mP. The “fluorescence polarization” value ([3]; MtrR WT dimer 574.07 nM) was 34.21 mP and 36.80 mP and 32.93 mP, the “fluorescence polarization” value ([3]; MtrR WT dimer 711.46 nM) was 37.61 mP and 38.13 mP and 35.23 mP and the “fluorescence polarization” value ([3]; MtrR WT dimer 848.00 nM) was 39.37 mP and 41.63 mP and 41.06 mP. For the same compound, the MIC ([4]; FA19, 24 h) was > 1180 µM, the MIC ([4]; strain FA19, GC agar, read-out: MIC) was > 320 µg/mL and the MIC ([5]; Neisseria gonorrhoeae) was 320 µg/mL and 1180 µM. For the same compound, the “effect of mtrD deletion on MIC” value ([5]; vs FA19) was “lowered”, the “Miller units, Mean” value ([6]; Mean of plate rows 5-8, plate columns 1-6 (first strain), 6.25 µM hormone) was 42 Miller units and the “Miller units, Mean” value ([6]; Mean of plate rows 5-8, plate columns 1-6 (first strain), 12.5 µM hormone) was 61 Miller units. For the same compound, the “Miller units, Mean” value ([6]; Mean of plate rows 5-8, plate columns 1-6 (first strain), 25 µM hormone) was 70 Miller units, the “Miller units, Mean” value ([6]; Mean of plate rows 5-8, plate columns 1-6 (first strain), 50 µM hormone) was 78 Miller units and the “Miller units, Mean” value ([6]; Mean of plate rows 5-8, plate columns 7-12 (second strain), 6.25 µM hormone) was 73.6 Miller units. The “Miller units, Mean” value ([6]; Mean of plate rows 5-8, plate columns 7-12 (second strain), 12.5 µM hormone) was 75.3 Miller units, the “Miller units, Mean” value ([6]; Mean of plate rows 5-8, plate columns 7-12 (second strain), 25 µM hormone) was 76.5 Miller units and the “Miller units, Mean” value ([6]; Mean of plate rows 5-8, plate columns 7-12 (second strain), 50 µM hormone) was 79.6 Miller units. The “induction of rpoH expression” value ([6]; complemented (MtrR+) strains, increasing hormone) was “could be induced”, the “induction of rpoH expression” value ([6]; loss of MtrR or MtrR-D171A strain) was “abrogated” and the Miller units [6, 8] was 73 Miller units. The “β-galactosidase activity (Miller units)” value [6, 8] was 64 Miller units and 67 Miller units and 90 Miller units, the Miller units [6, 9] was 67 Miller units and the “β-galactosidase activity (Miller units)” value [6, 9] was 68 Miller units and 72 Miller units and 94 Miller units. The Miller units [6, 10] was 76 Miller units, the “β-galactosidase activity (Miller units)” value [6, 10] was 84 Miller units and 81 Miller units and 65 Miller units and the Miller units [6, 11] was 82 Miller units. The “β-galactosidase activity (Miller units)” value [6, 11] was 80 Miller units and 76 Miller units, the “β-galactosidase activity (Miller units)” value ([6]; rpoH-lacZ, ΔmtrR + mtrR WT in trans, 6.25 µM hormone, single replicate) was 29 Miller units and 43 Miller units and 45 Miller units and 49 Miller units and the “β-galactosidase activity (Miller units)” value ([6]; rpoH-lacZ, ΔmtrR + mtrR WT in trans, 12.5 µM hormone, single replicate) was 60 Miller units and 54 Miller units and 64 Miller units and 67 Miller units. For the same compound, the “β-galactosidase activity (Miller units)” value ([6]; rpoH-lacZ, ΔmtrR + mtrR WT in trans, 25 µM hormone, single replicate) was 91 Miller units and 57 Miller units and 68 Miller units and 64 Miller units, the “β-galactosidase activity (Miller units)” value ([6]; rpoH-lacZ, ΔmtrR + mtrR WT in trans, 50 µM hormone, single replicate) was 89 Miller units and 63 Miller units and 78 Miller units and 82 Miller units and the “β-galactosidase activity (Miller units)” value ([6]; rpoH-lacZ, ΔmtrR strain, 6.25 µM hormone, single replicate) was 253 Miller units and 160 Miller units and 91 Miller units. The “β-galactosidase activity (Miller units)” value ([6]; rpoH-lacZ, ΔmtrR strain, 12.5 µM hormone, single replicate) was 161 Miller units and 99 Miller units, the “β-galactosidase activity (Miller units)” value ([6]; rpoH-lacZ, ΔmtrR strain, 25 µM hormone, single replicate) was 232 Miller units and 156 Miller units and 133 Miller units and the “β-galactosidase activity (Miller units)” value ([6]; rpoH-lacZ, ΔmtrR strain, 50 µM hormone, single replicate) was 195 Miller units and 151 Miller units and 114 Miller units. The Miller units ([6]; rpoH-lacZ, ΔmtrR, 6.25 µM hormone, single replicate) was 150 Miller units, the Miller units ([6]; rpoH-lacZ, ΔmtrR, 12.5 µM hormone, single replicate) was 165 Miller units and the Miller units ([6]; rpoH-lacZ, ΔmtrR, 25 µM hormone, single replicate) was 177 Miller units. The Miller units ([6]; rpoH-lacZ, ΔmtrR, 50 µM hormone, single replicate) was 178 Miller units, the Miller units ([6]; single well, plate rows 5-8, plate columns 1-6 (first strain), 6.25 µM hormone) was 29 Miller units and 43 Miller units and 45 Miller units and 49 Miller units and the Miller units ([6]; single well, plate rows 5-8, plate columns 1-6 (first strain), 12.5 µM hormone) was 60 Miller units and 54 Miller units and 64 Miller units and 67 Miller units. For the same compound, the Miller units ([6]; single well, plate rows 5-8, plate columns 1-6 (first strain), 25 µM hormone) was 91 Miller units and 57 Miller units and 68 Miller units and 64 Miller units, the Miller units ([6]; single well, plate rows 5-8, plate columns 1-6 (first strain), 50 µM hormone) was 89 Miller units and 63 Miller units and 78 Miller units and 82 Miller units and the Miller units ([6]; single well, plate rows 5-8, plate columns 7-12 (second strain), 6.25 µM hormone) was 64 Miller units and 67 Miller units and 73 Miller units and 90 Miller units. The Miller units ([6]; single well, plate rows 5-8, plate columns 7-12 (second strain), 12.5 µM hormone) was 68 Miller units and 72 Miller units and 67 Miller units and 94 Miller units, the Miller units ([6]; single well, plate rows 5-8, plate columns 7-12 (second strain), 25 µM hormone) was 84 Miller units and 81 Miller units and 76 Miller units and 65 Miller units and the Miller units ([6]; single well, plate rows 5-8, plate columns 7-12 (second strain), 50 µM hormone) was 80 Miller units and 82 Miller units and 76 Miller units. For the same compound, the “β-galactosidase activity, rpoH-lacZ, Mean” value ([6]; strain WT (FA19/pLES94-rpoH), hormone 6.25 µM) was 83 Miller units, the “β-galactosidase activity, rpoH-lacZ, Mean” value ([6]; strain WT (FA19/pLES94-rpoH), hormone 12.5 µM) was 113 Miller units and the “β-galactosidase activity, rpoH-lacZ, Mean” value ([6]; strain WT (FA19/pLES94-rpoH), hormone 25 µM) was 148 Miller units. The “β-galactosidase activity, rpoH-lacZ, Mean” value ([6]; strain WT (FA19/pLES94-rpoH), hormone 50 µM) was 162 Miller units, the “activation of rpoH” value ([6]; strain producing MtrR R176E) was “clearly weaker activation” and the “β-galactosidase activity, rpoH-lacZ, Mean” value ([6]; strain ΔmtrR (FA19 ∆mtrR/pLES94-rpoH), hormone 6.25 µM) was 163 Miller units. The “β-galactosidase activity, rpoH-lacZ, Mean” value ([6]; strain ΔmtrR (FA19 ∆mtrR/pLES94-rpoH), hormone 12.5 µM) was 152 Miller units, the “β-galactosidase activity, rpoH-lacZ, Mean” value ([6]; strain ΔmtrR (FA19 ∆mtrR/pLES94-rpoH), hormone 25 µM) was 175 Miller units and the “β-galactosidase activity, rpoH-lacZ, Mean” value ([6]; strain ΔmtrR (FA19 ∆mtrR/pLES94-rpoH), hormone 50 µM) was 160 Miller units. The “β-galactosidase activity, rpoH-lacZ, Mean” value ([6]; strain ΔmtrR + mtrR D171A (pGCC3-mtrR D171A), hormone 6.25 µM) was 74 Miller units, the “β-galactosidase activity, rpoH-lacZ, Mean” value ([6]; strain ΔmtrR + mtrR D171A (pGCC3-mtrR D171A), hormone 12.5 µM) was 75 Miller units and the “β-galactosidase activity, rpoH-lacZ, Mean” value ([6]; strain ΔmtrR + mtrR D171A (pGCC3-mtrR D171A), hormone 25 µM) was 76 Miller units. The “β-galactosidase activity, rpoH-lacZ, Mean” value ([6]; strain ΔmtrR + mtrR D171A (pGCC3-mtrR D171A), hormone 50 µM) was 80 Miller units, the “β-galactosidase activity, rpoH-lacZ, Mean” value ([6]; strain ΔmtrR + mtrR WT (pGCC3-mtrR), hormone 6.25 µM) was 42 Miller units and the “β-galactosidase activity, rpoH-lacZ, Mean” value ([6]; strain ΔmtrR + mtrR WT (pGCC3-mtrR), hormone 12.5 µM) was 61 Miller units. For the same compound, the “β-galactosidase activity, rpoH-lacZ, Mean” value ([6]; strain ΔmtrR + mtrR WT (pGCC3-mtrR), hormone 25 µM) was 70 Miller units, the “β-galactosidase activity, rpoH-lacZ, Mean” value ([6]; strain ΔmtrR + mtrR WT (pGCC3-mtrR), hormone 50 µM) was 78 Miller units and the “growth inhibition of N. gonorrhoeae” value [7] was “arrest N. gonorrhoeae growth”.
